In paper PMC11050599, “Novel Tetracyclic Azaphenothiazines with the Quinoline Ring as New Anticancer and Antibacterial Derivatives of Chlorpromazine” (International Journal of Molecular Sciences, 2024):
Values after ≈ are worked out from the molar mass of the structure shown.

Key:
S. aureus NCTC 4163 = experiment: MIC broth microdilution; format: cell-based; details: Staphylococcus aureus, NCTC4163; 19 h, 35 °C; read-out: MIC S. aureus NCTC 4163
Description: (§1) To evaluate the antibacterial effectiveness of chloroquinobenzothiazine derivatives, various bacterial strains from international microbe collections such as the American Type Culture Collection (ATCC) and the National Collection of Type Culture (NCTC) were examined, alongside a panel of clinical rods. This included two Gram-negative organisms, E. coli ATCC 25922 and P. aeruginosa ATCC 15442, and a series of six Gram-positive strains: S. aureus NCTC 4163; S. aureus ATCC 29213, 25923, and 6538; and S. epidermidis ATCC 12228 and 35984. […] The MIC was determined using the two-fold serial broth microdilution method in 96-well microtitration plates containing Mueller-Hinton II broth medium (Becton Dickinson, Franklin Lakes, NJ, USA). The final inoculum for all tested bacteria was adjusted to […] (colony-forming units per milliliter). The stock solution of the tested compounds was prepared in dimethyl sulfoxide (DMSO) and diluted to a maximum of 1% solvent content with a sterile medium.

S. aureus ATCC 29213 = experiment: MIC broth microdilution; format: cell-based; details: Staphylococcus aureus, ATCC29213; 19 h, 35 °C; read-out: MIC S. aureus ATCC 29213
Description: as §1

[1] = tested on: S. epidermidis ATCC 35984; experiment: MIC broth microdilution; format: cell-based; details: Staphylococcus epidermidis, ATCC35984; 19 h, 35 °C; read-out: MIC S. epidermidis ATCC 35984
Description: as §1

S. aureus ATCC 6538 = experiment: MIC broth microdilution; format: cell-based; details: Staphylococcus aureus, ATCC6538; 19 h, 35 °C; read-out: MIC S. aureus ATCC 6538
Description: as §1

P. aeruginosa ATCC 15442 = experiment: MIC broth microdilution; format: cell-based; details: Pseudomonas aeruginosa, ATCC15442; 19 h, 35 °C; read-out: MIC P. aeruginosa ATCC 15442
Description: as §1

E. coli ATCC 25922 = experiment: MIC broth microdilution; format: cell-based; details: Escherichia coli, ATCC25922; 19 h, 35 °C; read-out: MIC E. coli ATCC 25922
Description: as §1

S. aureus ATCC 25923 = experiment: MIC broth microdilution; format: cell-based; details: Staphylococcus aureus, ATCC25923; 19 h, 35 °C; read-out: MIC S. aureus ATCC 25923
Description: as §1

[2] = tested on: S. epidermidis ATCC 12228; experiment: MIC broth microdilution; format: cell-based; details: Staphylococcus epidermidis, ATCC12228; 19 h, 35 °C; read-out: MIC S. epidermidis ATCC 12228
Description: as §1

A549 (lung cancer) = experiment: MTT assay, A549 cells; format: cell-based, human; details: for IC50: Homo sapiens, A549, MTT, 72 h, mean SD, read-out: IC50 A549; for SI A549: SI = IC50 for normal cell line (HaCaT)/IC50 cancer cell line
Procedure: (§2) The human cell lines, such as A549 (lung cancer), MDA-MB-231 (breast cancer), MiaPaca-2 (pancreatic cancer), PC3 (metastatic prostate cancer), HCT-116 (colon carcinoma), and HaCaT (immortalized keratinocytes), were sourced from the American Type Culture Collection (ATCC) in Rockville, USA. Culturing conditions varied as follows: HCT116 cells were cultured in MEM (ThermoSci, Waltham, MA, USA), A549, MDA-MB-231, MiaPaca, HaCaT cells in DMEM High Glucose and PC3 cells were cultured in RPMI (Biowest SAS, Nuaillé, France). The growth medium consisted of 10% fetal bovine serum (FBS, Sigma-Aldrich, St. Louis, MO, USA), 20 mM HEPES (Biowest, Nuaillé, France), and antibiotics (100 U/mL of penicillin and 100 μg/mL of streptomycin) from Gibco, Grand Island, NY, USA. […] These compounds were added to 96-well plates containing study cells (1 × 10^4 cells per well) and incubated for 72 h. […] Cell absorbance results were incorporated into the formula for calculating the relative MTT level (%), enabling the assessment of cell viability following exposure to the test compounds. The cell viability percentage represents the MTT reduction in cells treated with the test compounds compared to the control sample, where only the medium was added to the cells.

[3] = tested on: HaCaT (immortalized human keratinocytes); experiment: MTT assay, HaCaT normal cells; format: cell-based; details: Homo sapiens, HaCaT; MTT, 72 h, normal cells; read-out: IC50 HaCaT (Table 3)
Procedure: as §2

[4] = tested on: MDA-MB-231 (breast cancer); experiment: MTT assay, MDA-MB-231 cells; format: cell-based, human; details: for IC50: Homo sapiens, MDA-MB-231, MTT, 72 h, MDA-MB231, read-out: IC50 MDA; for SI MDA: SI = IC50 for normal cell line (HaCaT)/IC50 cancer cell line
Procedure: as §2

| SMILES | MIC (S. aureus NCTC 4163) [µg/mL] | MIC (S. aureus ATCC 29213) [µg/mL] | MIC [1] [µg/mL] | MIC (S. aureus ATCC 6538) [µg/mL] | MIC (P. aeruginosa ATCC 15442) [µg/mL] | MIC (E. coli ATCC 25922) [µg/mL] | MIC (S. aureus ATCC 25923) [µg/mL] | MIC [2] [µg/mL] | IC50 (A549 (lung cancer)) [µM] | IC50 [4] [µM] | SI A549 (A549 (lung cancer)) | IC50 [3] [µM] | SI MDA [4] |
| --- | --- | --- | --- | --- | --- | --- | --- | --- | --- | --- | --- | --- | --- |
| Cc1ccc(S(=O)(=O)NCCCN2c3cc(Cl)ccc3Sc3cc4ccccc4nc32)cc1 [Compound 24, N-(3-(8-Chloroquino[3,2-b]benzo[1,4]thiazin-6-yl)propyl)-4-methylbenzenesulfonamide] | > 256 | > 256 | > 256 | > 256 | > 256 | > 256 | > 256 | > 256 | > 100 | > 100 | 1.0 | > 100 | 1.0 |
| FC(F)(F)c1ccc(-n2cc(CN3c4cc(Cl)ccc4Sc4cc5ccccc5nc43)nn2)cc1 [Compound 28, 8-Chloro-6-((1-(4-(trifluoromethyl)phenyl)-1H-1,2,3-triazol-4-yl)methyl)-quino[3,2-b]benzo[1,4]thiazine] | > 256 | > 256 | > 256 | > 256 | > 256 | > 256 | > 256 | > 256 | > 100 | > 100 | 1.0 | > 100 | 1.0 |
| CC(=O)NCCCCN1c2cc(Cl)ccc2Sc2cc3ccccc3nc21 [Compound 17, N-(4-(8-Chloroquino[3,2-b]benzo[1,4]thiazin-6-yl)butyl)acetamide] | > 256 | > 256 | > 256 | > 256 | > 256 | > 256 | > 256 | > 256 | 82.3 ± 6.2 | > 100 | 1.2 | > 100 | 1.0 |
| Fc1ccc(Cn2cc(CN3c4cc(Cl)ccc4Sc4cc5ccccc5nc43)nn2)cc1 [Compound 30, 8-chloro-6-((1-(4-fluorobenzyl)-1H-1,2,3-triazol-4-yl)methyl)-quino[3,2-b]benzo[1,4]thiazine] | > 256 | > 256 | > 256 | > 256 | > 256 | > 256 | > 256 | > 256 | > 100 | > 100 | 1.0 | > 100 | 1.0 |
| CC(=O)NCCCN1c2cc(Cl)ccc2Sc2cc3ccccc3nc21 [Compound 16, N-(3-(8-Chloroquino[3,2-b]benzo[1,4]thiazin-6-yl)propyl)acetamide] | > 256 | > 256 | > 256 | > 256 | > 256 | > 256 | > 256 | > 256 | 24.6 ± 6.1 | 76.6 ± 8.9 | 4.1 | > 100 | 1.3 |

Continued, in another order:

| MIC (S. aureus NCTC 4163) [µg/mL] | MIC (S. aureus ATCC 29213) [µg/mL] | MIC [1] [µg/mL] | MIC (S. aureus ATCC 6538) [µg/mL] | MIC (P. aeruginosa ATCC 15442) [µg/mL] | MIC (E. coli ATCC 25922) [µg/mL] | MIC (S. aureus ATCC 25923) [µg/mL] | MIC [2] [µg/mL] | IC50 (A549 (lung cancer)) [µM] | IC50 [4] [µM] | SMILES | SI A549 (A549 (lung cancer)) | IC50 [3] [µM] | SI MDA [4] |
| --- | --- | --- | --- | --- | --- | --- | --- | --- | --- | --- | --- | --- | --- |
| > 256 | > 256 | > 256 | > 256 | > 256 | > 256 | > 256 | > 256 | 63.8 ± 8.5 | > 100 | Clc1ccc2c(c1)N(CCN1CCCCC1)c1nc3ccccc3cc1S2 [Compound 10, 8-Chloro-6-(2-(piperidin-1-yl)ethyl)-quino[3,2-b]benzo[1,4]thiazine] | 1.6 | > 100 | 1.0 |
| 8 (≈ 20.8 µM) | 8 (≈ 20.8 µM) | 8 (≈ 20.8 µM) | 8 (≈ 20.8 µM) | > 256 | > 256 | 8 (≈ 20.8 µM) | 8 (≈ 20.8 µM) | 27.2 ± 8.4 | > 100 | CCN(CC)CCN1c2cc(Cl)ccc2Sc2cc3ccccc3nc21 [Compound 7, 2-(8-Chloroquino[3,2-b]benzo[1,4]thiazin-6-yl)-N,N-diethylethan-1-amine] | 3.7 | > 100 | 1.0 |
